Laboratory results reported in article PMC6856681, “Accumulation of Dietary S‐Methyl Cysteine Sulfoxide in Human Prostate Tissue” (Molecular Nutrition & Food Research, 2019).
Where two headings read alike, the source gives them in different places.

Assays:
[1] = SAP study: metabolites in prostate biopsy tissue, peri-prostatic adipose tissue and urine after 4 weeks of broccoli soup supplementation vs control; format: in vivo, human
Excerpt: The SAP study (Figure 2) was a two-arm, parallel un-blinded, dietary-supplementation study, delivering a short, high-dose broccoli soup supplement to a habitual diet to men in the pre-biopsy window before a trans-perineal prostate biopsy (TPB). The primary aim was to determine whether supplementation of a diet with a broccoli soup would enhance the levels of […] and other broccoli-derived metabolites in the prostate of men scheduled for prostate biopsy. Eighteen men were randomized to either continue their normal diet (non-supplementation controls) or receive three portions of a glucoraphanin-rich broccoli soup (300 g) per week for a minimum of 4 weeks manufactured from a broccoli cultivar heterozygous for a Myb28^villosa allele, as previously described.19 On the study day, samples of whole blood, urine (following a digital rectal prostatic massage), prostate, and peri-prostatic adipose tissue were collected. The protocol was approved by the Human Research Governance Committee ([…] 01/2016) at Quadram Institute Bioscience and given full ethical approval by The East of England - Cambridge East Research Ethics Committee (ref: 16/EE/0054). The trial was registered on a publicly accessible database (ClinicalTrials.gov, NCT02821728). A sample of whole blood for genotyping was obtained via the intravenous cannula inserted for use by the anesthetist, thus avoiding additional venipuncture. After prostatic massage, a first-pass urine sample was collected. TPB was performed under general or spinal anesthesia with appropriate antibiotic prophylaxis. Once anesthetized, the patient was positioned supine with their legs elevated in stirrups. A template grid was placed on the skin of the perineum and the prostate visualized by trans-rectal ultrasound scan. […] For the SAP study, eight biopsy cores of prostate tissue were taken from a region of the prostate not known or suspected to contain cancer. Five of these were snap frozen for metabolite analyses, two in RNAlater, and one in methanol. Two additional cores were taken from peri-prostatic adipose tissue and snap frozen. Snap-frozen tissue cores were individually weighed on a high-sensitivity balance and transferred to screw-top tubes. Two hundred microliters of cold Milli- Q® water and […] of autoclaved, acid-washed 710 to 1180 μm glass beads were added to each tube. […] The samples were then placed on a revolving shaker for 15 min at 4 °C. The tubes were centrifuged at 17 000 × g for 10 min at 4 °C and 50 μL of supernatant transferred to a new Eppendorf. 10 μL of 50% trichloroacetic acid (TCA) were added to each sample to precipitate proteins. The centrifugation step was repeated and 50 μL of supernatant transferred to HPLC insert vials for analysis by LC-MS/MS. […] Stock solutions of 1 mg mL^-1 sulfate (Sigma) and SMCSO (LKT laboratories Inc.) were generated by dilution of weighed powder into Milli-Q water. Serial fivefold dilutions were performed in the relevant matrix to produce 6-point calibration curves from 10 to 0 μg mL^-1 on the day of analysis. Sulfate was quantified using an Agilent 6490 triple-quad LC-MS mass spectrometer (Agilent technologies) with Thermo Scientific Hypercarb, Porous Graphitic Carbon (PGC) (3 × 50 mm, 3 μm) column. Two microliters were injected from each sample, with separation by 1% formic acid in Milli-Q water (mobile phase A) and 1% formic acid in methanol (mobile phase B). The gradient started at 8% mobile phase B, increasing to 70% over 5.5 min and returned to 8% mobile phase B for re-equilibration over the last 9.5 min. The column temperature was maintained at 60 °C and the flow rate at 0.3 mL min^-1. […] SMCSO was quantified with the Agilent system described above. […] Snap-frozen tissue cores were individually weighed on a high-sensitivity balance and transferred to screw-top tubes. Two hundred microliters of cold Milli-Q water and […] of autoclaved, acid-washed 710 to 1180 μm glass beads (Sigma) were added to each tube. […]

[2] = Effect of heating the soup to boiling (microwave or conduction) on metabolite amount; format: physicochemical; conditions: heating to boiling by microwave or conduction vs unheated control
Excerpt: One portion of soup contained 280 ± 8.8 µmoles of glucoraphanin and 1513 ± 36.8 µmoles of SMCSO. The soup was provided frozen and heated up prior to consumption using a standard procedure. Heating either by microwave or conduction had no effect on SMCSO or glucoraphanin concentration (Figure 3).
Figure 3 The effect of heating soup to boiling on amount of a) glucoraphanin and b) SMCSO compared to unheated control by microwave or conduction heating. Columns are means of two independent samples.

[3] = set-up: method as in Sivapalan et al.19; conditions: human, ref Sivapalan et al.19, cited from earlier work
[4] = human, cited from earlier work
[5] = SMCSO in tissue cores from radical prostatectomies of men not in a dietary study; format: in vivo, human; conditions: two cores from each of four glands
Excerpt: To further explore the presence of un‐metabolized SMCSO in the prostate gland of men who had not been within a dietary study, tissue samples were obtained from patients who had endoscopic extraperitoneal radical prostatectomies. Access to tissue and subsequent analyses were undertaken under ethical approval granted from the Faculty of Medicine and Health Sciences Research Ethics Committee of the University of East Anglia (FMHS 20122014–37). The prostate gland was removed from the abdominal cavity immediately after resection and rapidly biopsied after extraction to avoid ischemic artifacts using a standard core biopsy instrument, as previously described.23 The extracted whole prostatectomy specimen was placed on a surgical table, the apex and base of the gland were identified, and the prostate cut transversely (axial section) half way along the gland. With the use of the midline and the urethra as guides, biopsies were taken from the peripheral zones avoiding obvious tumor sites where feasible. Two cores were taken from each of four glands for analyses. The tissue was snap frozen and analyzed for the presence of SMCSO as described above.

[6] = Feeding of 35S-labeled SMCSO to human volunteers, recovery of label in urine (Waring et al.); format: in vivo
Excerpt: Previously, there has been only a single study of the metabolism of SMCSO in humans. Waring and colleagues describe the feeding of ^35S‐labeled SMCSO to human volunteers, and the recovery of 96% of the label in urine after 14 days, of which 40% was inorganic sulfate, indicating almost complete absorption of SMCSO (and/or its colonic microbiological derivatives).18 How SMCSO was metabolized is unknown, but it is likely that it was due to initial cysteine‐S‐conjugate β lyase activity by gut microbiome, as opposed to mammalian enzyme activity.

[7] = both, human, in vivo
Experimental: (§1) SMCSO was quantified with the Agilent system described above. Samples were injected at 2 µL eluted at a flow rate of 0.3 mL min^–1 on an Agilent SB‐AQ 1.8 µM (100 × 21 mm) C18 column. Separation was carried out using 10 mM ammonium acetate + 0.05% hetafluorobutyric acid in Milli‐Q water (mobile phase A) and 10 mM ammonium acetate + 0.05% hetafluorobutyric acid in 90% methanol (mobile phase B). The gradient started at 2% mobile phase B, increasing over 2 min to 5% B and returning to 2% mobile phase B for re‐equilibration over the last 2 min. The column was set at 20 °C due to the instability of SMCSO at high temperatures. The LC eluent flow was sprayed into the mass spectrometer interface without splitting. SMCSO ion was monitored by MS in MRM mode (m/z = 87.9) in positive polarity with ESI. The source parameters were: gas temperature 200 °C, gas flow 16 L min^–1, sheath gas temperature 300 °C with a sheath gas flow of 11 L min^–1, a nebulizer pressure of 50 psi, and capillary voltage 3500 V. Quantification was performed by peak area against the matrix‐matched standard curve, and identification by retention time and product ions.
(§2) To quantify the amount of SMCSO in plasma and urine from a single portion of soup, samples were analyzed from a previously described acute intervention study (NCT02300324).24 In this study, ten volunteers consumed a single portion of the identical soup to that used in the SAP study as described above as part of a three‐phase cross‐over study. Briefly, men and woman aged 18–65 years with a BMI between 19.5 and 35 kg m^–2 were enrolled into a dietary intervention trial undertaken at the Human Nutrition Unit of the Quadram Institute Bioscience Subjects were recruited on the basis of fasted (≥8 h) screening blood/urine samples and a completed health questionnaire. The study involved a 48‐h pre‐intervention diet restriction, a study day involving a 9‐h stay at the HNU and a sample collection the following morning (24 h post soup consumption) followed by a washout period of 2 weeks. […]

[8] = set-up: method as in PMID 14768973; conditions: cited from earlier work
clinical = conditions: both, human, in vivo
Experimental: as §1, §2

[9] = read-out: Plasma C max; following a portion of cruciferous vegetables, transient; cited from earlier work
[10] = human prostate biopsy cores, LC–MS/MS, both study arms

Q: Which results are given for `C[S@@+]([O-])CCCC/C(=N/OS(=O)(=O)O)S[C@@H]1O[C@H](CO)[C@@H](O)[C@H](O)[C@H]1O` [Glucoraphanin, 4‐Methylsulphinylbutyl glucosinolate]?
A: Detection in prostate tissue [1, 10]: No glucoraphanin or sulforaphane (and its thiol conjugates) was detected; Effect of heating on concentration in the soup [2]: no effect; Plasma C24h ([3]; 24 h after single 300 mL portion of broccoli soup): <10 nM; Plasma AUC ([3]; single 300 mL portion of broccoli soup (280 µmoles glucoraphanin)): 0.15 ± 0.08 µM·h; Cmax ([3]; single 300 mL portion of broccoli soup (280 µmoles glucoraphanin), read-out: Plasma Cmax): 30 ± 10 nM; Plasma Tmax ([3]; single 300 mL portion of broccoli soup): 2.23 ± 0.09 h; Urine: percentage excreted after 24 h ([4]; percentage of consumed glucoraphanin excreted intact, ref Sivapalan et al.19): 0.51 ± 0.24%; Urine: total excreted in 24 h ([4]; single 300 mL portion of broccoli soup (280 µmoles glucoraphanin), ref Sivapalan et al.19): 1.44 ± 0.66 µmol; Conversion of glucoraphanin to sulforaphane ([4]; value assumed for the dose-equivalent calculation): 8%

Q: With `C[S@+]([O-])C[C@H](N)C(=O)O` [SMCSO, (+)‐S‐methyl cysteine sulfoxide] as the compound, how does the “Detection in prostate tissue” value ([1]; in vivo) read?
A: present

Q: What about the “SMCSO level in peri-prostatic adipose tissue” value ([1]; in vivo) of the same compound?
A: higher levels than in prostate tissue but without significant difference between the two groups

Q: What about the “SMCSO level in urine, supplement group vs control” value ([1]; in vivo) of the same compound?
A: higher in urine in the supplement group compared to the control

Q: And the “Detection of SMCSO in radical prostatectomy tissue samples” value [5]?
A: detected in seven of the eight tissue samples

Q: What about the “Proportion of SMCSO absorbed from the GI tract” value ([6]; concluding statement) of the same compound?
A: ~100%

Q: And the “Proportion of consumed SMCSO that is metabolized in vivo” value ([6]; inferred from this study together with Waring et al. 18)?
A: about 90%

Q: What about the “Effect of heating on concentration in the soup” value [2] of the same compound?
A: no effect

Q: What about the “Plasma concentration of SMCSO relative to that of glucoraphanin or sulforaphane” value [7] of the same compound?
A: about 1000 fold

Q: What about the “Share of recovered urinary label that was inorganic sulfate” value ([8]; human volunteers fed 35S-labeled SMCSO, 14 days) of the same compound?
A: 40%

Q: And the “Recovery of 35S label in urine” value ([8]; human volunteers fed 35S-labeled SMCSO, after 14 days)?
A: 96%

Q: What about the “Proportion of SMCSO absorbed (as un-metabolized SMCSO or unknown derivatives)” value ([8]; human) of the same compound?
A: 97%

Q: And the concentration at 24 h (clinical)?
A: 4660 ± 1520 nM

Q: And the Tmax (clinical; Plasma Tmax)?
A: 1.4 h

Q: With `C[S+]([O-])CCCCN=C=S` (centres unmarked) [Sulforaphane, sulforaphane] as the compound, how does the “Detection in prostate tissue” value [1, 10] read?
A: No glucoraphanin or sulforaphane (and its thiol conjugates) was detected

Q: And the Sulforaphane in urine ([1]; human, participants in both arms)?
A: detected in urine from participants in both arms of the study

Q: And the Cmax [9]?
A: < 1000 nM

Q: Which “Sulfate level in prostate tissue between the two dietary arms” value ([1]; human prostate biopsy cores) does the source give for `O=S(=O)(O)O` [sulfate] here?
A: no significant difference
